Two compounds from EP4741389A1, “KAT6 INHIBITOR” (Shanghai Qilu Pharmaceutical Research and Development …, priority 2023, dated 2025) can be followed below.

pIC50: −log10 of the molar value.

The target in one data set is T1, KAT6A (Homo sapiens, UniProt Q92794).
T1 construct: purchased Active Motif 81223
The data set is described as follows: KATs acetyltransferase enzyme activity assay (TR-FRET), KAT6A. The note with it: Biotin-H3 (1-21) and AcCOA, 90 minutes at room temperature. In kind it is biochemical. (In general: Time-resolved FRET reads energy transfer from a long-lived donor to a nearby acceptor.)

Another data set concerns the target T2, KAT6B (Homo sapiens, UniProt Q8WYB5).
T2 construct: purchased Active Motif 81224
The data set is described as follows: KATs acetyltransferase enzyme activity assay (TR-FRET), KAT6B. It is filed as biochemical. The note with it: Biotin-H3 (1-21) and AcCOA, 90 minutes at room temperature. The essentials:
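TR-FRET assay in Tris-HCl buffer: enzyme preincubated with compound 15 min at room temperature, then biotin-H3(1-21) peptide and acetyl-CoA added for 90 min at room temperature. Acetylation detected with Eu-anti-acetyl-histone H4 lysine antibody and ULight-streptavidin (60 min), 665/620 nm ratio; IC50 from four-parameter logistic fit.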

For data set [1], the system named is human breast cancer ZR-75-1 cell xenografts. The data set is described as follows: In vivo efficacy study in BALB/c nude mouse model with subcutaneous ZR-75-1 xenografts. The note with it: for T/C / TGI / Tumor Volume: 0.3 mg/kg; for T/C / TGI: based on tumor volume on day 21 post-administration; for Tumor Volume: day 21 post-administration, female BALB/c nude mice, 7 per group. The source says:
IV. In vivo efficacy study of test drug Compound 2, Compound 5-P2, Compound 3, and Compound A in a BALB/c nude mouse model with subcutaneously implanted human breast cancer ZR-75-1 cell xenografts
The objective of this experiment is to evaluate the in vivo efficacy of the test drug Compound 2, Compound 5-P2, Compound 3, and Compound A in a BALB/c nude mouse model with subcutaneously implanted human breast cancer ZR-75-1 cell xenografts.
(§1) • Species: Mouse; • Strain: BALB/c nude mice; • Age and weight: 6-8 weeks old, weighing 19-26 grams; • Gender: Female; • Supplier: GemPharmatech Co., Ltd.; • Compound source: Compound A: [drawing 190] prepared with reference to patent CN114364672A.
Human breast cancer ZR-75-1 (ATCC, CRL-1500) cells were cultured in vitro as adherent cultures. The culture conditions were: 1640 medium supplemented with 10 vol% FBS, 100 U/mL penicillin, and 100 µg/mL streptomycin, incubated in a 37°C, 5% CO2 cell culture incubator. Routine passaging was performed twice a week. When cell confluence reached 80%-90% and the cell number met the requirements, cells were harvested, counted, and inoculated.
Three days before cell implantation, a 17β-estrogen pellet (0.36 mg) was implanted into the left dorsal side of each mouse. Starting one week after pellet implantation, animals were urinated 2-3 times per week. If necessary, animals were urinated daily.
(§2) A mixture containing 10×10^6 ZR-75-1 cells in 100 µL PBS and 100 µL Matrigel (final volume was 200 µL) was subcutaneously implanted into the right dorsal side (upper side) of each mouse. On day 18 after cell implantation, when the average tumor volume reached 138 mm^3, grouping and administration were initiated. Mice with tumor volumes ranging from 100 to 212 mm^3 were selected for the study. Mice were randomly assigned to groups based on body weight and tumor volume, with 7 mice per group. The day of grouping was designated as PG-D0, and administration for all groups started from PG-D0.
The experimental index is to investigate whether tumor growth is inhibited, delayed, or cured. Tumor diameters were measured three times per week using a vernier caliper. Tumor volume was calculated using the formula: V = 0.5a × b^2, where a and b represent the major and minor diameters of the tumor, respectively.
The anti-tumor efficacy of the compounds was evaluated using TGI (%) or the relative tumor proliferation rate T/C (%). TGI (%), reflects the tumor growth inhibition rate. TGI (%) was calculated as: TGI (%) = [1 - (Mean tumor volume of a treatment group at the end of administration - Mean tumor volume of the same treatment group at the start of administration) / (Mean tumor volume of the vehicle control group at the end of treatment - Mean tumor volume of the vehicle control group at the start of treatment)] × 100%.
Relative Tumor Proliferation Rate T/C (%): The calculation formula is as follows: T/C% = TRTV / CRTV ×100 % (TRTV: RTV of the treatment group; CRTV: RTV of the negative control group). The relative tumor volume (RTV) was calculated based on tumor measurement results using the formula RTV = Vt /V0, where V0 is the tumor volume of each mouse measured at the start of grouping and administration (i.e., d0), and Vt is the tumor volume of each mouse at a specific measurement time. The mean value for each group was then calculated. V0 and Vt correspond to tumor volume data from the same mouse.

The nature of data set [2]: Body weight changes and tolerability in the ZR-75-1 xenograft study. In kind it is in vivo, Mouse. The note with it: result in words; for body weight changes: differences among the groups, FIG. 1. On the procedure: as §1, §2
The effects of the test drugs Compound 2, Compound 5-P2, Compound 3, and Compound A on the body weight of the female BALB/c nude mouse model with subcutaneously implanted human breast cancer ZR-75-1 cell xenografts are shown in FIG. 1.

As a reminder, the pIC50 is −log10 of the IC50, conventionally taken in molar units. A high value points to a low IC50. A word on the T/C: it is the ratio of treated to control.

T2 sequence (Q8WYB5 whole entry): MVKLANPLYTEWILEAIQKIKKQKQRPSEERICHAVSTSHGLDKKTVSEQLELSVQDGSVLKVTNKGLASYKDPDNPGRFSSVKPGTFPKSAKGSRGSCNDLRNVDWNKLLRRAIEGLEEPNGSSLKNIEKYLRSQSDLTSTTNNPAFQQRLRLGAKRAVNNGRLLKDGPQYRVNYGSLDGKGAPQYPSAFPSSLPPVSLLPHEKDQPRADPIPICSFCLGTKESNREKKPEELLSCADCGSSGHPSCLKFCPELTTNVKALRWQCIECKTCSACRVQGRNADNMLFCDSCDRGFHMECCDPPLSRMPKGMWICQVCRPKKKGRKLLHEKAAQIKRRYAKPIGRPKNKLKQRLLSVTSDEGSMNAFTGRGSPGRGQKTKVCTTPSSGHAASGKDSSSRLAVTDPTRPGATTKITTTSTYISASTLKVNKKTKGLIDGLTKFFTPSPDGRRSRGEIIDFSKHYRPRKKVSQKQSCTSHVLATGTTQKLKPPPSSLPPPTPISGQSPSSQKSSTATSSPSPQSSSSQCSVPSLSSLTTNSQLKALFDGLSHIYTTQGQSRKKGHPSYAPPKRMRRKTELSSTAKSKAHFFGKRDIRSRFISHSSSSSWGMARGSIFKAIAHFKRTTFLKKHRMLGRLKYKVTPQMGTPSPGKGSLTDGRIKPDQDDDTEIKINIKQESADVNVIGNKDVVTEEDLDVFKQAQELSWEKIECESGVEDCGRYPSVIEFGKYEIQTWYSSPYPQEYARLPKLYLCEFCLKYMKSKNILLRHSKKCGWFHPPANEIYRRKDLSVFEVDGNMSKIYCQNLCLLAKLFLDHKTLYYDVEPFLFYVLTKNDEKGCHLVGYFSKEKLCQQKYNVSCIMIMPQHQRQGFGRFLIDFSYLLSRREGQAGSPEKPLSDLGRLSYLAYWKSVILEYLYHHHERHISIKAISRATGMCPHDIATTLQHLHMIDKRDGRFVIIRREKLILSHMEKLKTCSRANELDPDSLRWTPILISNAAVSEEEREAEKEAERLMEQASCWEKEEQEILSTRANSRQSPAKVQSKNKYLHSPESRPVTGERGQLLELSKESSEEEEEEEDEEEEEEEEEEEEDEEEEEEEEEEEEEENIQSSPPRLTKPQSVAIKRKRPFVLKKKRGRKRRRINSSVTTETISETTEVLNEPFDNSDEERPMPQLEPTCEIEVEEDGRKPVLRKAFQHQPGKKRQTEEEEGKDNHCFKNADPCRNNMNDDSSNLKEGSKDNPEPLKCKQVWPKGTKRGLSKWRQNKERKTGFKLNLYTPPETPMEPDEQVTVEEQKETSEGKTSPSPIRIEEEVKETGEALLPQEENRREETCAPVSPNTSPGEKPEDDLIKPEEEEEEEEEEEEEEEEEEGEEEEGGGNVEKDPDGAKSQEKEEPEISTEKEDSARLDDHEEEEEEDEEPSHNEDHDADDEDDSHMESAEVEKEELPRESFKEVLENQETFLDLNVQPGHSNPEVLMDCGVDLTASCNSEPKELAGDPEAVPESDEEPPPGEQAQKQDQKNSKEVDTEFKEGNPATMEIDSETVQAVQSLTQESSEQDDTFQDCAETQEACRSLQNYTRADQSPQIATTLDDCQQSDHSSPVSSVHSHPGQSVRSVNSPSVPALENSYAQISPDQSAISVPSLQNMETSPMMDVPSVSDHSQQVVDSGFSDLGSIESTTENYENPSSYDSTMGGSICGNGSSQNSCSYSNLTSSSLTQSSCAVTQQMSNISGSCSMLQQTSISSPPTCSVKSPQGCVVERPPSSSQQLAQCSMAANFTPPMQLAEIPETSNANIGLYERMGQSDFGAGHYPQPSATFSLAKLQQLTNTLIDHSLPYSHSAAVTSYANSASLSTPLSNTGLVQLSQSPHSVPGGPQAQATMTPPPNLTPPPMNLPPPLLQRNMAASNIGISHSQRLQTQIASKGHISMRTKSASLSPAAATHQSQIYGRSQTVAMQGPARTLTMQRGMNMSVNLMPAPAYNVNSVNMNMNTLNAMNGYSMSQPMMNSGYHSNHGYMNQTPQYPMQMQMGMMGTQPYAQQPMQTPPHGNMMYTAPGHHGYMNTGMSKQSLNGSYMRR
T1 sequence (Q92794 488-778 limits assumed): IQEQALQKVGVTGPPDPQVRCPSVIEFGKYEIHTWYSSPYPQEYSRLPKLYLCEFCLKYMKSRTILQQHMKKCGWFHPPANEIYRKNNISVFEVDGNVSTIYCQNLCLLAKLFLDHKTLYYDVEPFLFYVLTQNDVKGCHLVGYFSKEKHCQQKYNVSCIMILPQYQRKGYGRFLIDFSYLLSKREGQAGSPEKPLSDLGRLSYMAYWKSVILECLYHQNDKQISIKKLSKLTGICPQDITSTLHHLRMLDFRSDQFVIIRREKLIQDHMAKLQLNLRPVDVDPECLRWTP

Regarding `COc1ccc2c(c1S(=O)(=O)Nc1noc3cc(Cn4cccn4)cc(OC)c13)OCC21CC1` [Compound 3, N-(6-((1H-Pyrazol-1-yl)methyl)-4-methoxybenzo[d]isoxazol-3-yl)-6-methoxy-2H-spiro[benzofuran-3,1'-cyclopropane]-7-sulfonamide], the pIC50 against KAT6A was 8.74. Further, on KAT6B, the pIC50 is 8.12. In data set [1], the T/C is on record as 12.95%, the TGI is reported as 104.47% and the “Tumor Volume” value worked out at 106 ± 12 mm^3. The anti-tumor effects result in data set [1] (ZR-75-1 xenograft model, tumor growth curves FIG. 2, result in words) is on record as “more significant anti-tumor effects compared to Compound A”. Besides, in data set [2], the body weight changes entry was “not significant”. Besides, the “tolerability in tumor-bearing mice” value in data set [2] (human breast cancer ZR-75-1 model) is “tolerated”.
Consider `COc1ccccc1S(=O)(=O)Nc1noc2cc(Cn3cccn3)cc(OC)c12` [Compound A, reference compound], for which, in data set [1], the T/C stood at 33.17%, the TGI turned out to be 80.40% and the “Tumor Volume” value worked out at 278 ± 44 mm^3. In data set [2], the body weight changes entry is on record as “not significant”.
